According to PubChem BioAssay (NCI):
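A five-concentration, 48-hour dose response in 96-well plates underlies each endpoint, interpolated linearly between surrounding concentrations. At the GI50, growth is halved. The concentration for full growth arrest is given as TGI.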

How the values were obtained:
Test in all cases: growth of human tumour cells (NCI), 48 h
MDA-MB-435 = system: MDA-MB-435
OVCAR-3 ovarian = system: OVCAR-3 ovarian
MCF7 breast = system: MCF7 breast
NCI-H226 lung = system: NCI-H226 lung
TK-10 renal = system: TK-10 renal
MDA-MB-231 breast = system: MDA-MB-231 breast
SNB-75 CNS = system: SNB-75 CNS
HOP-92 NSCLC = system: HOP-92 NSCLC
CCRF-CEM leukemia = system: CCRF-CEM leukemia
ACHN renal = system: ACHN renal
SR leukemia = system: SR leukemia
K-562 leukemia = system: K-562 leukemia
COLO 205 colon = system: COLO 205 colon
RXF 393 renal = system: RXF 393 renal
NCI-H460 lung = system: NCI-H460 lung
SF-268 CNS = system: SF-268 CNS
A549 NSCLC = system: A549 NSCLC
HS 578T breast = system: HS 578T breast
T-47D breast = system: T-47D breast
NCI/ADR-RES ovarian = system: NCI/ADR-RES ovarian
SK-MEL-28 melanoma = system: SK-MEL-28 melanoma
UACC-62 melanoma = system: UACC-62 melanoma
OVCAR-5 ovarian = system: OVCAR-5 ovarian
EKVX NSCLC = system: EKVX NSCLC
SNB-19 CNS = system: SNB-19 CNS
M14 melanoma = system: M14 melanoma
786-0 renal = system: 786-0 renal
HCT-15 colon = system: HCT-15 colon
HL-60(TB) leukemia = system: HL-60(TB) leukemia
HOP-62 NSCLC = system: HOP-62 NSCLC
LOX IMVI melanoma = system: LOX IMVI melanoma
KM12 colon = system: KM12 colon
HCC-2998 colon = system: HCC-2998 colon
UO-31 renal = system: UO-31 renal
HT29 colon = system: HT29 colon
U251 CNS = system: U251 CNS
A498 renal = system: A498 renal
SK-MEL-5 melanoma = system: SK-MEL-5 melanoma
HCT-116 colon = system: HCT-116 colon
SF-539 CNS = system: SF-539 CNS
NCI-H23 lung = system: NCI-H23 lung
PC-3 prostate = system: PC-3 prostate
OVCAR-4 ovarian = system: OVCAR-4 ovarian
CAKI-1 renal = system: CAKI-1 renal
SW-620 colon = system: SW-620 colon
NCI-H522 lung = system: NCI-H522 lung
BT-549 breast = system: BT-549 breast
SK-OV-3 ovarian = system: SK-OV-3 ovarian
SF-295 CNS = system: SF-295 CNS
SK-MEL-2 melanoma = system: SK-MEL-2 melanoma
RPMI-8226 leukemia = system: RPMI-8226 leukemia
MOLT-4 leukemia = system: MOLT-4 leukemia
DU-145 prostate = system: DU-145 prostate

COc1ccc2c(CCC(c3ccccc3)c3ccccc3)c3[n+](cc2c1OC)CCc1cc2c(cc1-3)OCO2
GI50 (MDA-MB-435): 0.143 µM | TGI (MDA-MB-435): 1.41 µM | GI50 (OVCAR-3 ovarian): 0.028 µM | TGI (OVCAR-3 ovarian): 1.3 µM | GI50 (MCF7 breast): 0.483 µM | TGI (MCF7 breast): 3.22 µM | GI50 (NCI-H226 lung): 1.56 µM | TGI (NCI-H226 lung): 5.33 µM | GI50 (TK-10 renal): 0.339 µM | TGI (TK-10 renal): 1.58 µM | GI50 (MDA-MB-231 breast): 1.1 µM | TGI (MDA-MB-231 breast): 3.48 µM | GI50 (SNB-75 CNS): 0.266 µM | TGI (SNB-75 CNS): 1.84 µM | GI50 (HOP-92 NSCLC): 0.15 µM | TGI (HOP-92 NSCLC): 0.596 µM | GI50 (CCRF-CEM leukemia): < 0.0398 µM | TGI (CCRF-CEM leukemia): 2.71 µM | GI50 (ACHN renal): 1.29 µM | TGI (ACHN renal): 5.22 µM | GI50 (SR leukemia): 0.373 µM | TGI (SR leukemia): 3.24 µM | GI50 (K-562 leukemia): 0.327 µM | TGI (K-562 leukemia): 3.01 µM | GI50 (COLO 205 colon): 0.0831 µM | TGI (COLO 205 colon): 0.619 µM | GI50 (RXF 393 renal): 0.686 µM | TGI (RXF 393 renal): 2.2 µM | GI50 (NCI-H460 lung): 0.0123 µM | TGI (NCI-H460 lung): 1.03 µM | GI50 (SF-268 CNS): 0.519 µM | TGI (SF-268 CNS): 1.98 µM | GI50 (A549 NSCLC): 1.55 µM | TGI (A549 NSCLC): 5.07 µM | GI50 (HS 578T breast): 0.799 µM | TGI (HS 578T breast): 3.82 µM | GI50 (T-47D breast): 0.241 µM | TGI (T-47D breast): 1.76 µM | GI50 (NCI/ADR-RES ovarian): 13.1 µM | TGI (NCI/ADR-RES ovarian): 55.7 µM | GI50 (SK-MEL-28 melanoma): 0.462 µM | TGI (SK-MEL-28 melanoma): 2.06 µM | GI50 (UACC-62 melanoma): 0.153 µM | TGI (UACC-62 melanoma): 1.76 µM | GI50 (OVCAR-5 ovarian): 1.76 µM | TGI (OVCAR-5 ovarian): 5.95 µM | GI50 (EKVX NSCLC): 0.492 µM | TGI (EKVX NSCLC): 7.25 µM | GI50 (SNB-19 CNS): 0.242 µM | TGI (SNB-19 CNS): 1.74 µM | GI50 (M14 melanoma): 0.296 µM | TGI (M14 melanoma): 1.74 µM | GI50 (786-0 renal): 1.09 µM | TGI (786-0 renal): 2.5 µM | GI50 (HCT-15 colon): 2.28 µM | TGI (HCT-15 colon): 7.43 µM | GI50 (HL-60(TB) leukemia): 0.0822 µM | TGI (HL-60(TB) leukemia): 0.526 µM | GI50 (HOP-62 NSCLC): 0.546 µM | TGI (HOP-62 NSCLC): 1.8 µM | GI50 (LOX IMVI melanoma): 0.255 µM | TGI (LOX IMVI melanoma): 1.36 µM | GI50 (KM12 colon): 0.16 µM | TGI (KM12 colon): 1.19 µM | GI50 (HCC-2998 colon): 0.326 µM | TGI (HCC-2998 colon): 1.93 µM | GI50 (UO-31 renal): 3.2 µM | TGI (UO-31 renal): 13.3 µM | GI50 (HT29 colon): 0.139 µM | TGI (HT29 colon): 1.31 µM | GI50 (U251 CNS): 0.172 µM | TGI (U251 CNS): 1.38 µM | GI50 (A498 renal): 1.31 µM | TGI (A498 renal): 6.8 µM | GI50 (SK-MEL-5 melanoma): 0.0383 µM | TGI (SK-MEL-5 melanoma): 0.214 µM | GI50 (HCT-116 colon): 0.202 µM | TGI (HCT-116 colon): 1.27 µM | GI50 (SF-539 CNS): 0.846 µM | TGI (SF-539 CNS): 3.67 µM | GI50 (NCI-H23 lung): 0.242 µM | TGI (NCI-H23 lung): 1.94 µM | GI50 (PC-3 prostate): 0.112 µM | TGI (PC-3 prostate): 0.837 µM | GI50 (OVCAR-4 ovarian): 0.271 µM | TGI (OVCAR-4 ovarian): 1.51 µM | GI50 (CAKI-1 renal): 3.94 µM | TGI (CAKI-1 renal): 16.1 µM | GI50 (SW-620 colon): 0.315 µM | TGI (SW-620 colon): 1.63 µM | GI50 (NCI-H522 lung): 0.122 µM | TGI (NCI-H522 lung): 0.858 µM | GI50 (BT-549 breast): 0.268 µM | TGI (BT-549 breast): 1.35 µM | GI50 (SK-OV-3 ovarian): 0.593 µM | TGI (SK-OV-3 ovarian): 1.74 µM | GI50 (SF-295 CNS): 0.732 µM | TGI (SF-295 CNS): 3.99 µM | GI50 (SK-MEL-2 melanoma): 0.0705 µM | TGI (SK-MEL-2 melanoma): 1.04 µM | GI50 (RPMI-8226 leukemia): 0.0507 µM | TGI (RPMI-8226 leukemia): 1.72 µM | GI50 (MOLT-4 leukemia): 0.381 µM | TGI (MOLT-4 leukemia): 3.04 µM | GI50 (DU-145 prostate): 0.348 µM | TGI (DU-145 prostate): 1.8 µM
